Consider four sequences from publication PMC4512654 (Analytical biochemistry, 2014).

Assay [1] addresses T1, Activated Factor XIII (FXIIIa) (Homo sapiens, UniProt P00488).
T1 sequence (P00488 39-732 limits assumed): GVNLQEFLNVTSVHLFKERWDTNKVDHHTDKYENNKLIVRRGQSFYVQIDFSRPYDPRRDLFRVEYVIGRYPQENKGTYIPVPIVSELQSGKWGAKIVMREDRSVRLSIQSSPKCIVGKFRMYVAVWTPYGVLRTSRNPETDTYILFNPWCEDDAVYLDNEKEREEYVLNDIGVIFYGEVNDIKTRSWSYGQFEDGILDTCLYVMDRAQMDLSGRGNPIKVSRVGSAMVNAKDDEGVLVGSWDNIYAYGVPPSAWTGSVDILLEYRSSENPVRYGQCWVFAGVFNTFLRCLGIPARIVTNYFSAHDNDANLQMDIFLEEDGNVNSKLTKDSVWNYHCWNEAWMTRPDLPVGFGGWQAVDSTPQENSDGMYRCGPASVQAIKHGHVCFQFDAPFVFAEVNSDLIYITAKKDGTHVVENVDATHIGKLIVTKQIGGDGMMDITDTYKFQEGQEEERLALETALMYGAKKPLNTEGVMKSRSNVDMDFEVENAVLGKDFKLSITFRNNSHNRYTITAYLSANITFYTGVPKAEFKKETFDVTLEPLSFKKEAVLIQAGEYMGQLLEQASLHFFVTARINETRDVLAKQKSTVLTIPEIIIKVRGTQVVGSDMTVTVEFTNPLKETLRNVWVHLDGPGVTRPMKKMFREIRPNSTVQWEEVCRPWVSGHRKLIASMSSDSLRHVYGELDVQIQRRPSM
The assay is classed as biochemical.

In another assay the test system is FXIIIa. The following applies: coupled uv/vis assay, derived earlier; cited from earlier work.

On to FQSGQVLAALPRTSR [TAFI (1–15)], for which the “Km weaker than α2AP (1–15) K12R and S. Aureus Fnb A (100–114)” value in assay [1] was “more than 5 fold”.

Usually Km stands for the concentration of substrate that gives half-maximal velocity. For NQEKVSPLTLLKLGN [α2AP (1–15) Q4K], the Km with FXIIIa is 426 ± 93 µM.

Regarding NQEQVSPLTLLKLGN [α2AP (1–15)], the Km with FXIIIa is 459 ± 50 µM.

In the case of “SGDQRQVDLIPKKAT [S. Aureus Fnb A (100–114)]”, the “Km better than S. Aureus Fnb A (100–110)” value in assay [1] (P < 0.05) is recorded as “almost two-fold better”.
